Experimental data published in patent US20080069849A1, “Novel Antimicrobial Peptides” (Dermagen AB, priority 2004, published 2008).
Where two headings read alike, the source gives them in different places. Where a SMILES comes first, the peptide text is derived from it. Where no end group is shown, it is not given here. [ ]: non-standard residue; d: D form.

Tests used:
erythrocytes = test: Hemolysis assay (Example 11); type: cell-based; set-up: % Hemolysis Mean: dose or concentration left out as unconfirmed
Method: EDTA-blood was centrifuged at 800 g for 10 min, whereafter plasma and buffy coat were removed. The erythrocytes were washed three times and resuspended in 5% PBS, pH 7.4. The cells were then incubated with end-over-end rotation for 1 h at 37° C. in the presence of peptides ([…]). 2% Triton X-100 (Sigma-Aldrich) served as positive control. The samples were then centrifuged at 800 g for 10 min. The absorbance of hemoglobin release was measured at λ 540 nm and is in the plot expressed as % of TritonX-100 induced hemolysis.

Escherichia coli 37.4 = test: Radial diffusion assay (RDA), E. coli 37.4; type: cell-based; settings: zone of inhibition; Table 2, second generation PEPscreen
Method: (§1) Escherichia coli 37.4 isolate was originally obtained from a patient with a chronic venous ulcer, while Staphylococcus aureus isolate BD14312 was from a patient with atopic dermatitis. Staphylococcus aureus ATCC29213 and Candida albicans ATCC90028 were both obtained from the Clinical Bacteriology Department at Lund University hospital.
(§2) Essentially as described earlier (Lehrer et al., J Immunol Methods 137, 167-173, 1991, Andersson et al., Eur J Biochem 271, 1219-1226, 2004) bacteria were grown to mid-logarithmic phase in 10 ml of full-strength (3% w/v) trypticase soy broth (TSB) (Becton-Dickinson, Cockeysville, Md.). The microorganisms were then washed once with 10 mM Tris, pH 7.4.4×10^6 bacterial colony forming units were added to 15 ml of the underlay agarose gel, consisting of 0.03% (w/v) TSB, 1% (w/v) low electroendosmosis type (EEO) agarose (Sigma, St Louis Mo.) and 0.02% (v/v) Tween 20 (Sigma). The underlay was poured into a ø 144 mm petri dish. After agarose solidification, 4 mm-diameter wells were punched and 6 μl of test sample was added to each well. Plates were incubated at 37° C. for 3 hours to allow diffusion of the peptides. The underlay gel was then covered with 15 ml of molten overlay (6% TSB and 1% Low-EEO agarose in dH2O). Antimicrobial activity of a peptide is visualized as a zone of clearing around each well after 18-24 hours of incubation at 37° C.

[1] = tested on: Staphylococcus aureus ATCC29213; test: Radial diffusion assay (RDA), S. aureus ATCC29213; type: cell-based; settings: zone of inhibition; Table 2, second generation PEPscreen
Method: as §1, §2

P. aeruginosa 27.1 = test: Radial diffusion assay analysis of CNY variants (Example 4); type: cell-based, Pseudomonas aeruginosa; settings: peptides 100 μM
Method: Radial diffusion assays (RDA) were performed essentially as described earlier (Andersson et al., Eur J Biochem, 2004, 271:1219-1226). Briefly, bacteria (P. aeruginosa 27.1) were grown to mid-logarithmic phase in 10 ml of full-strength (3% w/v) trypticase soy broth (TSB) (Becton-Dickinson, Cockeysville, Md.). The microorganisms were washed once with […] Tris, pH 7.4. 4×10^6 bacterial cfu or 1×10^5 fungal cfu was added to 5 ml of the underlay agarose gel, consisting of 0.03% (w/v) TSB, 1% (w/v) low-electroendosmosistype (Low-EEO) agarose (Sigma, St Louise Mo.) and a final concentration of 0.02% (v/v) Tween 20 (Sigma). The underlay was poured into a Ø 85 mm petri dish. After agarose solidified, 4 mm-diameter wells were punched and 6 μl of test sample was added to each well. Plates were incubated at 37° C. for 3 hours to allow diffusion of the peptides. The underlay gel was then covered with 5 ml of molten overlay (6% TSB and 1% Low-EEO agarose in dH2O). Antimicrobial activity of a peptide is visualized as a clear zone around each well after 18-24 hours of incubation at 37° C. Synthetic peptides were tested in concentrations of 100 μM to determine the antibacterial effect (FIG. 8). CNY21; […], CNY20; […], CNY21R-S; […], CNY20R-S; […], CNY21H-L: […], CNY21H-K: […], CNY21H-P: […].

[2] = Pore formation / carboxyfluorescein leakage of liposomes; settings: 10 mM Tris, pH 7.4
Method: Peptides were tested for binding to lipid bilayers, resulting pore formation and peptide secondary structure in the lipid membranes. Lipid membranes investigated included both zwitterionic ones (containing phosphatidylcholine) and anionic ones (containing mixtures of phosphatidylcholine and phosphatidic acid). Lipid membranes were deposited at silica, and the binding of the peptides from 10 mM Tris, pH 7.4, was directly monitored by ellipsometry. […] Pore formation in these liposomes were determined by including carboxyfluorescein in the liposomes and following the fluorescence intensity increase on addition of peptides to the liposomes. Furthermore, the secondary structure of the peptides in the liposome lipid membranes was probed by circular dichroism.

## CNYIEELRRQLARALHKWLA [Peptide 173]
erythrocytes; 1 h
  % Hemolysis Mean: 8.148%

## CNYIEELLRQLAPASHKGLA [Peptide 148]
Escherichia coli 37.4
  RDA (mm) E. coli 37.4 Mean: 2.900 mm
[1]
  RDA (mm) S. aureus ATCC29213 Mean: 0.99 mm
erythrocytes
  % Hemolysis Mean: 1.454%

## CNYIEELRRQLARALKKGLA [Peptide 142]
erythrocytes; 1 h
  % Hemolysis Mean: 3.734%

## CNYITELKRQLARALKKGLA [Peptide 144]
erythrocytes; 1 h
  % Hemolysis Mean: 3.597%

## CNYITELLRQRARALHKGLA [Peptide 165]
erythrocytes; 1 h
  % Hemolysis Mean: 2.659%

## CNYIEELLRQRARALHKGLA [Peptide 166]
erythrocytes; 1 h
  % Hemolysis Mean: 2.117%

## CNYITELRRQLARALHKGLA [Peptide 140]
erythrocytes; 1 h
  % Hemolysis Mean: 5.145%

## CNYIEELLRQRARALKKGLA [Peptide 168]
erythrocytes; 1 h
  % Hemolysis Mean: 2.573%

## CNYITELLRQLARAKKKGLA [Peptide 160]
erythrocytes; 1 h
  % Hemolysis Mean: 2.512%

## CNYITELLRQKARALKKGLA [Peptide 163]
erythrocytes; 1 h
  % Hemolysis Mean: 2.478%

## CNYITELLRQLARANKKGLA [Peptide 154]
erythrocytes; 1 h
  % Hemolysis Mean: 2.564%

## CNYIEELLRQKARALHKGLA [Peptide 162]
erythrocytes; 1 h
  % Hemolysis Mean: 2.056%

## CNYIEELLRQLARARHKGLA [Peptide 157]
erythrocytes; 1 h
  % Hemolysis Mean: 1.282%

## CNYITELRRQKLRLLKKGLA [Peptide 169]
erythrocytes; 1 h
  % Hemolysis Mean: 2.512%

## CC[C@@H](C)[C@@H](NC(=O)[C@@H](Cc1ccc(O)cc1)NC(=O)[C@@H](CC(N)=O)NC(=O)[C@H](N)CS)C(=O)N[C@@H](C(=O)N[C@H](CCC(=O)O)C(=O)N[C@H](CC(C)C)C(=O)N[C@H](CCCNC(=N)N)C(=O)N[C@H](CCCNC(=N)N)C(=O)N[C@H](CCC(N)=O)C(=O)N[C@H](Cc1c[nH]cn1)C(=O)N[C@H](C)C(=O)N[C@H](CCCNC(=N)N)C(=O)N[C@H](C)C(=O)N[C@H](CO)C(=O)N[C@H](Cc1c[nH]cn1)C(=O)N[C@H](CC(C)C)C(=O)NCC(=O)N[C@H](CC(C)C)C(=O)N[C@H](C)C(=O)O)[C@H](C)O [Peptide 182] (H-[dC][dN][dY][dI][dT][dE][dL][dR][dR][dQ][dH][dA][dR][dA][dS][dH][dL]G[dL][dA]-OH; N-terminus and C-terminus assumed)
erythrocytes; 1 h
  % Hemolysis Mean: 2.659%

## CNYIEELKRQLARALHKGLA [Peptide 145]
erythrocytes; 1 h
  % Hemolysis Mean: 2.495%

## CNYITELLRQRARALKKGLA [Peptide 167]
erythrocytes; 1 h
  % Hemolysis Mean: 2.642%

## CNYIEELLRQLARATKKGLA [Peptide 153]
erythrocytes; 1 h
  % Hemolysis Mean: 1.755%

## CNYIEELLRQLARARKKGLA [Peptide 159]
erythrocytes; 1 h
  % Hemolysis Mean: 1.841%

## CNYITELLRQLARARHKGLA [Peptide 156]
erythrocytes; 1 h
  % Hemolysis Mean: 3.321%

## CC[C@@H](C)[C@@H](NC(=O)[C@@H](Cc1ccc(O)cc1)NC(=O)[C@@H](CC(N)=O)NC(=O)[C@H](N)CS)C(=O)N[C@H](CCC(=O)O)C(=O)N[C@H](CCC(=O)O)C(=O)N[C@H](CC(C)C)C(=O)N[C@H](CCCNC(=N)N)C(=O)N[C@H](CCCNC(=N)N)C(=O)N[C@H](CCC(N)=O)C(=O)N[C@H](CC(C)C)C(=O)N[C@H](C)C(=O)N[C@H](CCCNC(=N)N)C(=O)N[C@H](C)C(=O)N[C@H](CC(C)C)C(=O)N[C@H](Cc1c[nH]cn1)C(=O)N[C@H](CCCCN)C(=O)NCC(=O)N[C@H](CC(C)C)C(=O)N[C@H](C)C(=O)O [Peptide 184] (H-[dC][dN][dY][dI][dE][dE][dL][dR][dR][dQ][dL][dA][dR][dA][dL][dH][dK]G[dL][dA]-OH; N-terminus and C-terminus assumed)
erythrocytes; 1 h
  % Hemolysis Mean: 3.235%

## CNYITELLRQLARARKKGLA [Peptide 158]
erythrocytes; 1 h
  % Hemolysis Mean: 3.829%

## CNYITELLRQLARATKKGLA [Peptide 152]
erythrocytes; 1 h
  % Hemolysis Mean: 3.984%

## CNYIEELWRQLARALHKGLA [Peptide 176]
erythrocytes; 1 h
  % Hemolysis Mean: 2.771%

## CNYITELLRQLARASKKGLA [Peptide 39]
erythrocytes
  hemolytic activity: low hemolytic activity

## CNYITELKRQLARALHKGLA [Peptide 143]
erythrocytes; 1 h
  % Hemolysis Mean: 3.450%

## CNYITELRRQPARASPLGLAR [CNY21H-P]
P. aeruginosa 27.1
  antibacterial effect in RDA: no antimicrobial effects
[2]
  pore formation and leakage of liposomes, order of efficiency: CNY21H-L≈CNY21H-K>CNY21>CNY21H-P≧CNY21 R-S

## CNYIEELKRQLARALKKGLA [Peptide 146]
erythrocytes; 1 h
  % Hemolysis Mean: 2.521%

## CNYIWELRRQLARALHKGLA [Peptide 177]
erythrocytes; 1 h
  % Hemolysis Mean: 3.175%

## CNYITELRRQKARASKLGLAR [CNY21H-K]
P. aeruginosa 27.1
  antibacterial effect in RDA: larger anti-bacterial effect
[2]
  pore formation and leakage of liposomes, order of efficiency: CNY21H-L≈CNY21H-K>CNY21>CNY21H-P≧CNY21 R-S

## CNYITELLRQLARATHKGLA [Peptide 150]
erythrocytes; 1 h
  % Hemolysis Mean: 3.777%

## CNYIEELLRQLARATHKGLA [Peptide 151]
erythrocytes; 1 h
  % Hemolysis Mean: 1.626%

## CNYIEELRRQLARAWHKGLA [Peptide 174]
erythrocytes; 1 h
  % Hemolysis Mean: 2.056%

## Ac-CNYITELRRQHARASHLGLA-NH2 [Peptide 179]
Escherichia coli 37.4
  RDA (mm) E. coli 37.4 Mean: 2.677 mm
[1]
  RDA (mm) S. aureus ATCC29213 Mean: 4.03 mm
erythrocytes; 1 h
  % Hemolysis Mean: 2.495%

## CKYITLLRRQLLRALKRGLR [Peptide 73]
erythrocytes
  hemolytic activity: low hemolytic activity

## CNYIEELLRQLARASKKGLA [Peptide 149]
erythrocytes; 1 h
  % Hemolysis Mean: 1.506%

## CNYITELLRQKARALHKGLA [Peptide 161]
erythrocytes; 1 h
  % Hemolysis Mean: 1.902%

## CNYITELRRQLARASLLGLAR [CNY21H-L]
P. aeruginosa 27.1
  antibacterial effect in RDA: larger anti-bacterial effect
[2]
  pore formation and leakage of liposomes, order of efficiency: CNY21H-L≈CNY21H-K>CNY21>CNY21H-P≧CNY21 R-S

## CC[C@@H](C)[C@@H](NC(=O)[C@@H](Cc1ccc(O)cc1)NC(=O)[C@@H](CC(N)=O)NC(=O)[C@H](N)CS)C(=O)N[C@@H](C(=O)N[C@H](CCC(=O)O)C(=O)N[C@H](CC(C)C)C(=O)N[C@H](CC(C)C)C(=O)N[C@H](CCCNC(=N)N)C(=O)N[C@H](CCC(N)=O)C(=O)N[C@H](CC(C)C)C(=O)N[C@H](C)C(=O)N[C@H](CCCNC(=N)N)C(=O)N[C@H](C)C(=O)N[C@H](CO)C(=O)N[C@H](CCCCN)C(=O)N[C@H](CCCCN)C(=O)NCC(=O)N[C@H](CC(C)C)C(=O)N[C@H](C)C(=O)O)[C@H](C)O [Peptide 183] (H-[dC][dN][dY][dI][dT][dE][dL][dL][dR][dQ][dL][dA][dR][dA][dS][dK][dK]G[dL][dA]-OH; N-terminus and C-terminus assumed)
erythrocytes; 1 h
  % Hemolysis Mean: 5.128%

## CNYIEELRRQWARALHKGLA [Peptide 175]
erythrocytes; 1 h
  % Hemolysis Mean: 1.824%

## CNYITELLRQLARAQKKGLA [Peptide 155]
erythrocytes; 1 h
  % Hemolysis Mean: 5.817%

## CNYITELLRQLARASHKGLA [Peptide 147]
erythrocytes; 1 h
  % Hemolysis Mean: 2.555%

## CNYIEELRRQLARALHKGLA [Peptide 47]
erythrocytes
  hemolytic activity: low hemolytic activity
erythrocytes; 1 h
  % Hemolysis Mean: 2.323%

## Ac-CNYITELLRQLARASKKGLA-NH2 [Peptide 180]
Escherichia coli 37.4
  RDA (mm) E. coli 37.4 Mean: 5.933 mm
[1]
  RDA (mm) S. aureus ATCC29213 Mean: 0 mm
erythrocytes; 1 h
  % Hemolysis Mean: 5.447%

## CNYITELRRQLARALKKGLA [Peptide 141]
erythrocytes; 1 h
  % Hemolysis Mean: 17.716%

## CNYITELRRQKLRLLHKGLA [Peptide 170]
erythrocytes; 1 h
  % Hemolysis Mean: 2.211%

## CNYIKELLRQKLRASHLGLA [Peptide 171]
erythrocytes; 1 h
  % Hemolysis Mean: 2.383%

## CNYIEELLRQKARALKKGLA [Peptide 164]
erythrocytes; 1 h
  % Hemolysis Mean: 2.340%

## Ac-CNYIEELRRQLARALHKGLA-NH2 [Peptide 181]
Escherichia coli 37.4
  RDA (mm) E. coli 37.4 Mean: 4.330 mm
[1]
  RDA (mm) S. aureus ATCC29213 Mean: 4.24 mm
erythrocytes; 1 h
  % Hemolysis Mean: 4.861%
